Reference: PubChem BioAssay (NCI)
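Test compounds were applied to cells in 96-well plates for 48 hours at 5 doses. Here, GI50 denotes the concentration required for 50% inhibition of growth. Definition used: TGI = concentration required for complete inhibition of growth.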

Key:
Experiment in all cases: NCI tumour cell line growth inhibition, 48 h
[1] = system: IGROV1 ovarian
[2] = system: MDA-MB-231 breast
[3] = system: OVCAR-8 ovarian
[4] = system: HOP-92 NSCLC
[5] = system: HCC-2998 colon
[6] = system: SK-MEL-2 melanoma
[7] = system: 786-0 renal
[8] = system: NCI-H23 lung
[9] = system: U251 CNS
[10] = system: SN12C renal
[11] = system: OVCAR-5 ovarian
[12] = system: OVCAR-3 ovarian
[13] = system: SF-539 CNS
[14] = system: SF-268 CNS
[15] = system: MDA-MB-435
[16] = system: MOLT-4 leukemia
[17] = system: CAKI-1 renal
[18] = system: SNB-19 CNS
[19] = system: EKVX NSCLC
[20] = system: TK-10 renal
[21] = system: A549 NSCLC
[22] = system: RPMI-8226 leukemia
[23] = system: HOP-62 NSCLC
[24] = system: CCRF-CEM leukemia
[25] = system: SK-MEL-28 melanoma
[26] = system: SF-295 CNS
[27] = system: HS 578T breast
[28] = system: NCI-H226 lung
[29] = system: OVCAR-4 ovarian
[30] = system: NCI-H522 lung
[31] = system: SR leukemia
[32] = system: A498 renal
[33] = system: MDA-MB-468 breast
[34] = system: ACHN renal
[35] = system: PC-3 prostate
[36] = system: COLO 205 colon
[37] = system: MALME-3M melanoma
[38] = system: HCT-116 colon
[39] = system: NCI-H460 lung
[40] = system: SNB-75 CNS
[41] = system: BT-549 breast
[42] = system: HCT-15 colon
[43] = system: SK-OV-3 ovarian
[44] = system: UACC-257 melanoma
[45] = system: HT29 colon
[46] = system: T-47D breast
[47] = system: DU-145 prostate
[48] = system: UO-31 renal
[49] = system: NCI/ADR-RES ovarian
[50] = system: KM12 colon
[51] = system: HL-60(TB) leukemia
[52] = system: LOX IMVI melanoma
[53] = system: SW-620 colon
[54] = system: RXF 393 renal
[55] = system: UACC-62 melanoma
[56] = system: MCF7 breast
[57] = system: SK-MEL-5 melanoma
[58] = system: M14 melanoma

COc1cc2oc(-c3cccc(C(=O)Nc4ccc(Cl)cc4)c3)cc(=O)c2c(OCCNC(=O)[C@@H](N)CO)c1OC
GI50 [1]: 7.15 µM
TGI [1]: 23.9 µM
GI50 [2]: 2870 nM
TGI [2]: 9.37 µM
GI50 [3]: 10.1 µM
TGI [3]: 21.7 µM
GI50 [4]: 2650 nM
TGI [4]: 12.7 µM
GI50 [5]: 5.83 µM
TGI [5]: 19.3 µM
GI50 [6]: 2100 nM
TGI [6]: 5.03 µM
GI50 [7]: 13.2 µM
TGI [7]: 32.4 µM
GI50 [8]: 12.6 µM
TGI [8]: 30.2 µM
GI50 [9]: 2020 nM
TGI [9]: 3.9 µM
GI50 [10]: 6.64 µM
TGI [10]: 21.4 µM
GI50 [11]: 9.96 µM
TGI [11]: 44.3 µM
GI50 [12]: 13.4 µM
TGI [12]: 26.9 µM
GI50 [13]: 11.3 µM
TGI [13]: 24.5 µM
GI50 [14]: 13.9 µM
TGI [14]: 32.4 µM
GI50 [15]: 4.59 µM
TGI [15]: 17.8 µM
GI50 [16]: 2400 nM
TGI [16]: 5.18 µM
GI50 [17]: 65.4 µM
TGI [17]: > 100 µM
GI50 [18]: 4.94 µM
TGI [18]: 18 µM
GI50 [19]: 16.8 µM
TGI [19]: > 100 µM
GI50 [20]: 16.9 µM
TGI [20]: 37 µM
GI50 [21]: > 100 µM
TGI [21]: > 100 µM
GI50 [22]: 3.36 µM
TGI [22]: > 100 µM
GI50 [23]: 7.74 µM
TGI [23]: 29 µM
GI50 [24]: 2390 nM
TGI [24]: 5.83 µM
GI50 [25]: 1770 nM
TGI [25]: 3.46 µM
GI50 [26]: 6.84 µM
TGI [26]: 25.1 µM
GI50 [27]: 4.32 µM
TGI [27]: 18.2 µM
GI50 [28]: 12.8 µM
TGI [28]: 53 µM
GI50 [29]: 12.8 µM
TGI [29]: 30.3 µM
GI50 [30]: 3.61 µM
TGI [30]: 18 µM
GI50 [31]: 2660 nM
TGI [31]: 7.75 µM
GI50 [32]: 32.8 µM
TGI [32]: 65.7 µM
GI50 [33]: 1510 nM
TGI [33]: 3.63 µM
GI50 [34]: 30.6 µM
TGI [34]: > 100 µM
GI50 [35]: 10.8 µM
TGI [35]: 35.6 µM
GI50 [36]: 6 µM
TGI [36]: 20.2 µM
GI50 [37]: 2470 nM
TGI [37]: 6.92 µM
GI50 [38]: 4.72 µM
TGI [38]: 19.5 µM
GI50 [39]: 8.48 µM
TGI [39]: 22.1 µM
GI50 [40]: 10.2 µM
TGI [40]: 24.3 µM
GI50 [41]: 10.3 µM
TGI [41]: 25.4 µM
GI50 [42]: 19.6 µM
TGI [42]: > 100 µM
GI50 [43]: 14.8 µM
TGI [43]: 38.2 µM
GI50 [44]: 1970 nM
TGI [44]: 3.74 µM
GI50 [45]: 6.44 µM
TGI [45]: 26.6 µM
GI50 [46]: 4.19 µM
TGI [46]: 21.9 µM
GI50 [47]: 16 µM
TGI [47]: 35.4 µM
GI50 [48]: 45.6 µM
TGI [48]: > 100 µM
GI50 [49]: > 100 µM
TGI [49]: > 100 µM
GI50 [50]: 15.3 µM
TGI [50]: 29.1 µM
GI50 [51]: 8.2 µM
TGI [51]: 30.4 µM
GI50 [52]: 1790 nM
TGI [52]: 3.5 µM
GI50 [53]: 3.93 µM
TGI [53]: 14.1 µM
GI50 [54]: 8.76 µM
TGI [54]: 67.6 µM
GI50 [55]: 13.5 µM
TGI [55]: 31.6 µM
GI50 [56]: 3.53 µM
TGI [56]: 13.3 µM
GI50 [57]: 9.11 µM
TGI [57]: 26.6 µM
GI50 [58]: 1840 nM
TGI [58]: 3.72 µM
